B1: G-CSF: granulocyte-colony stimulating factor, protein that selectively stimulates production of white blood cells; positive control (protein, chains of the INN, looked up)
chain: MTPLGPASSLPQSFLLKCLEQVRKIQGDGAALQEKLCATYKLCHPEELVLLGHSLGIPWAPLSSCPSQALQLAGCLSQLHSGLFLYQGLLQALEGISPELGPTLDTLQLDVADFATTIWQQMEELGMAPALQPTQGAMPAFASAFQRRAGGVLVASHLQSFLEVSYRVLRHLAQP
modifications: N-terminal methionine, non-glycosylated

Tests used:
[1] = test system: mouse peripheral white blood cells; experiment: Activity of increasing white blood cells (WBC) in mice; type: in vivo, CDF1 male mice; conditions: peripheral blood on day 7
Protocol: This activity was determined using CDF1 male mice (18-20 g): mice were grouped as: vehicle, 30 mg/kg cyclophosphamide (CTX), 15 mg/kg test compounds. The mice were treated by IP injection: test compounds on day 1, 3, and 5 for three doses, vehicle and CTX daily for 6 days. On day 7, peripheral blood samples were collected and blood cells counted.

white blood cells = experiment: Therapeutical effect on white blood cells of mice pretreated with CTX; type: in vivo, CDF1 male mice; conditions: for number of white blood cell account, Day 6: Day 6: after CTX 30 mg/kg IP daily for 6 days, before therapeutical treatment started on 7th day
Protocol: This activity was determined using CDF1 male mice: mice were grouped and treated with daily CTX IP injection of 30 mg/kg for 6 days. […] Positive control group was treated with daily subcutaneously injection of 20 μg/kg G-CSF. Peripheral blood samples were collected and blood cells counted on the 10th day.

[2] = test system: white blood cells of beagle dog; experiment: Activity of increasing WBC in dogs; type: in vivo; conditions: for WBC: blood count day 5; for % increase (compared with the control): day 5
Protocol: The effect of the test compounds was tested on beagle dog with a daily IV injection at different doses for four days. The blood account was done at day 5.

Molecule	WBC ([1]; CTX 30 mg/kg IP daily for 6 days)	number of white blood cell account, Day 6 (white blood cells)	number of white blood cell account, Day 10 (white blood cells; Day 10: CTX 30 mg/kg IP daily for 6 days only)	WBC ([1]; test compound 15 mg/kg IP on day 1, 3 and 5)	number of white blood cell account, Day 10 (white blood cells; Day 10: CTX 30 mg/kg x 6 days, then test compound 15 mg/kg daily for 3 days from day 7)	WBC ([2]; 1 mg/kg daily IV for four days)	% increase (compared with the control) ([2]; 1 mg/kg daily IV for four days) [%]	WBC ([2]; 2 mg/kg daily IV for four days)	% increase (compared with the control) ([2]; 2 mg/kg daily IV for four days) [%]	WBC ([2]; 4 mg/kg daily IV for four days)	% increase (compared with the control) ([2]; 4 mg/kg daily IV for four days) [%]	WBC ([2]; 8 mg/kg daily IV for four days)	% increase (compared with the control) ([2]; 8 mg/kg daily IV for four days) [%]	effect on white blood accounts in dogs (in words) ([2]; daily IV, 1-8 mg/kg, four days)	number of white blood cell account, Day 10 (white blood cells; Day 10: CTX 30 mg/kg x 6 days, then G-CSF 20 μg/kg daily subcutaneously (positive control))
O=P1(N(CCCl)CCCl)NCCCO1 (centres unmarked) [CTX, cyclophosphamide, reference compound]	1.41 ± 0.50 ×10^9/L	1.5 ± 0.2 ×10^9/L	4.8 ± 0.8 ×10^9/L												
COc1ccc(-n2c3cssc-3c(NC(=O)c3cc(C(F)(F)F)cc(C(F)(F)F)c3)c2=O)c(OC)c1 [compound 0058, N-[4-(2,4-Dimethoxy-phenyl)-5-oxo-4,5-dihydro-[1,2]dithiolo[4,3-b]pyrrol-6-yl]-3,5-bis-trifluoromethyl-benzamide]		2.1 ± 0.8 ×10^9/L		23.9 ± 8.9 ×10^9/L	16.2 ± 2.1 ×10^9/L	13.0 ± 2.0 ×10^9/L	15.9	16.8 ± 1.0 ×10^9/L	48.2	21.5 ± 4.1 ×10^9/L	90.3	28.8 ± 7.0 ×10^9/L	154.9	significantly increased white blood accounts	
B1		1.8 ± 0.7 ×10^9/L													14.7 ± 1.8 ×10^9/L

Source: patent US8071637B2, “Dithiolopyrrolones compounds and their therapeutic applications” (Welichem Biotech Inc., priority 2006, dated 2011)
